This is an account of results in ChEMBL document CHEMBL1142344, “Rapid assembly of diverse and potent allosteric Akt inhibitors” (Bioorg Med Chem Lett, 2008).

Data set [1] is described as follows: Half life in dog at 0.25 mg/kg, iv. Conditions: in vivo. In kind it is ADME, organism-based, Canis lupus familiaris. On the set-up: dose 0.25 mg/kg, route intravenous.
Data set [2] in a line: Clearance in dog at 0.25 mg/kg, iv. Set-up: dose 0.25 mg/kg, route intravenous. The note with it: in vivo. In kind it is ADME, organism-based, Canis lupus familiaris.
Data set [3] has as its target T1, RAC-alpha serine/threonine-protein kinase (Homo sapiens, UniProt P31749). Kind of data set: Inhibition of human recombinant Akt1.
The target of data set [4] is T2, RAC-beta serine/threonine-protein kinase (Homo sapiens, UniProt P31751). The data set can be described thus: Inhibition of human recombinant Akt2.
In data set [5] the target is T1, RAC-alpha serine/threonine-protein kinase. Kind of data set: Inhibition of Akt1 phosphorylation in human C33a cells. In kind it is cell-based.
The target in data set [6] is T2, RAC-beta serine/threonine-protein kinase. The data set can be described thus: Inhibition of Akt2 phosphorylation in human C33a cells. In kind it is cell-based.

T2 sequence (P31751 whole entry): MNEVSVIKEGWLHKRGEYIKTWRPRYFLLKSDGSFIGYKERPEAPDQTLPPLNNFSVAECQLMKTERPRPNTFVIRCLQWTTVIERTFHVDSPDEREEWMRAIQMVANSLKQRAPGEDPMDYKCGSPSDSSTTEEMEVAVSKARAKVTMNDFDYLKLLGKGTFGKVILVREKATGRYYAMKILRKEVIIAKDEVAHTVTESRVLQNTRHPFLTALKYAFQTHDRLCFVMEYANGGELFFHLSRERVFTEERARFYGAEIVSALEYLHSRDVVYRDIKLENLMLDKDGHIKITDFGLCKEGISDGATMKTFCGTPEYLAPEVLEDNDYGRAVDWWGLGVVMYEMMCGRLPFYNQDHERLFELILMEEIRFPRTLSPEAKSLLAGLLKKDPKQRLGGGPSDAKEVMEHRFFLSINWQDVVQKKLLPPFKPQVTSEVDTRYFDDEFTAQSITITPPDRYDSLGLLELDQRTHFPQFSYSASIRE
T1 sequence (P31749 whole entry): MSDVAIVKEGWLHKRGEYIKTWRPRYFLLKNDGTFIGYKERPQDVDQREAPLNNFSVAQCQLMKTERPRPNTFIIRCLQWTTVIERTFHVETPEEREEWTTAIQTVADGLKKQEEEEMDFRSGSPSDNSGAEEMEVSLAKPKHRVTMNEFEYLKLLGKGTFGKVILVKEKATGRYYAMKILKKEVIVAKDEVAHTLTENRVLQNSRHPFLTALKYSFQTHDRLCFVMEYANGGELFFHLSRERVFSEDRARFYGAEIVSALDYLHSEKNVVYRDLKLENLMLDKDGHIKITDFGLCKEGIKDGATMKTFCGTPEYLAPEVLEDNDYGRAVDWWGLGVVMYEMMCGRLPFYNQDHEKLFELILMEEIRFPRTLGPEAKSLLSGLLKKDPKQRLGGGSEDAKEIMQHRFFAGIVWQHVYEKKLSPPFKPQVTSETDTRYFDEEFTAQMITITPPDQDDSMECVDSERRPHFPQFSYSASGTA

Consider `Nc1ncnc2nc(-c3ccc(CN4CCC(c5nc6ccc(F)cc6[nH]5)CC4)cc3)c(-c3ccccc3)cc12`, for which, in data set [1], the half-life – broadly, the time needed for the level to fall by half in the phase considered – is 2.8 h. Also, the clearance (usually a measure of how efficiently the substance is removed, as volume per time) in data set [2] came out at 5.6 mL/min/kg.

For `Nc1nn(CCc2c[nH]cn2)c2nc(-c3ccc(CN4CCC(n5c(=O)[nH]c6ccccc65)CC4)cc3)c(-c3ccccc3)cc12`, the IC50 (in general, the point on the concentration scale where inhibition reaches its midpoint) is 21 nM in data set [3] and 839 nM in data set [4].

As to `Nc1ncnc2nc(-c3ccc(CN4CCC(n5cnc6c(N)ncnc65)CC4)cc3)c(-c3ccccc3)cc12`, the figures for the IC50 in data set [3] and in data set [4] were 129 nM and 696 nM, respectively.

In the case of `Nc1nn(CCO)c2nc(-c3ccc(CN4CCC(n5c(=O)[nH]c6ccccc65)CC4)cc3)c(-c3ccccc3)cc12`, the IC50 in data set [3] was determined as 131 nM; in data set [4], 1230 nM.

As for `CNc1nc(-c2ccc(CN3CCC(n4c(=O)[nH]c5ccccc54)CC3)cc2)c(-c2ccccc2)cc1C#N`, the IC50 in data set [3] came out at 2250 nM; in data set [4], 8140 nM.

In the case of `Nc1ncnc2nc(-c3ccc(CN4CCC(c5cc(-c6ccncc6)[nH]n5)CC4)cc3)c(-c3ccccc3)cc12`, the half-inhibitory concentration (IC50) in data set [3] was determined as 21 nM; in data set [4] it was 85 nM; in data set [5], 463 nM; in data set [6], 1200 nM.

As to `CN(C)c1nc(-c2ccc(CN3CCC(n4c(=O)[nH]c5ccccc54)CC3)cc2)c(-c2ccccc2)cc1C#N`, the IC50 in data set [3] worked out at 8460 nM; in data set [4], 15400 nM.

For `Nc1n[nH]c2nc(-c3ccc(CN4CCC(n5c(=O)[nH]c6ccccc65)CC4)cc3)c(-c3ccccc3)cc12`, the IC50 in data set [3] amounted to 86 nM; in data set [4], 7360 nM.

With `N#Cc1cc(-c2ccccc2)c(-c2ccc(CN3CCC(n4c(=O)[nH]c5ccccc54)CC3)cc2)nc1Cl`, the IC50 in data set [3] is 253 nM; in data set [4], 7360 nM.

For the compound `Nc1nc(O)nc2nc(-c3ccc(CN4CCC(n5c(=O)[nH]c6ccccc65)CC4)cc3)c(-c3ccccc3)cc12`, the results for the IC50 in data set [3] and in data set [4] were 244 nM and 577 nM, respectively.

With `Cn1nc(N)c2cc(-c3ccccc3)c(-c3ccc(CN4CCC(n5c(=O)[nH]c6ccccc65)CC4)cc3)nc21`, the IC50 stood at 121 nM in data set [3] and 556 nM in data set [4].

As for `Nc1nc(N)c2cc(-c3ccccc3)c(-c3ccc(CN4CCC(n5c(=O)[nH]c6ccccc65)CC4)cc3)nc2n1`, the IC50 in data set [3] came out at 107 nM; in data set [4], 274 nM.

Consider `Nc1ncnc2nc(-c3ccc(CN4CCC(n5c(=O)[nH]c6ccccc65)CC4)cc3)c(-c3ccccc3)cc12`, for which the IC50 was determined as 81 nM in data set [3], 259 nM in data set [4], 1830 nM in data set [5] and 5080 nM in data set [6].

On to `COc1nc(-c2ccc(CN3CCC(n4c(=O)[nH]c5ccccc54)CC3)cc2)c(-c2ccccc2)cc1C#N`, for which the results for the IC50 in data set [3] and in data set [4] were 5550 nM and 37700 nM, respectively.

For `Cc1nc2ccccc2n1C1CCN(Cc2ccc(-c3nc4ncnc(N)c4cc3-c3ccccc3)cc2)CC1`, the IC50 in data set [3] amounted to 69 nM; in data set [4] it was 281 nM; in data set [5], 221 nM; in data set [6] it was 344 nM.

Regarding `N#Cc1cc(-c2ccccc2)c(-c2ccc(CN3CCC(n4c(=O)[nH]c5ccccc54)CC3)cc2)nc1N`, the IC50 in data set [3] came out at 495 nM; in data set [4], 2060 nM.
